{
  "source": "paper PMC3639484",
  "about": "(Journal of chromatography. A, 2013)",
  "experiment": "HILIC/SALT",
  "assay_type": "physicochemical",
  "details": "isocratic acetonitrile 0%, 10%, 20%, 30%, 40%, 50% and 60% in 0.2% aq. H3PO4, 30 °C",
  "data": [
    {"substance": "Ac-KWKSFLKTFSKAKKKKLKTLLKAISK-NH2 [Peptide D14]", "values": [
      {"measurement": "retention on Penta-HILIC column", "value": "No retention"}
    ]}
  ]
}
